Holding throughout (type): functional, BaF3
Test [1] can be described thus: Anticancer activity against mouse BA/F3 cells expressing JAK2 V617F mutation allografted in Harlan SCID mouse assessed as increase in lifespan at 45 mg/kg, po by luciferase reporter gene assay relative to control.
Test [2] is described as follows: Anticancer activity against mouse BA/F3 cells expressing JAK2 V617F mutation allografted in Harlan SCID mouse assessed as mean survival days at 45 mg/kg, po by luciferase reporter gene assay (reference value: 16 days).
Test [3] in a line: Anticancer activity against mouse BA/F3 cells expressing JAK2 V617F mutation allografted in Harlan SCID mouse assessed as mean survival days at 60 mg/kg, po by luciferase reporter gene assay (reference value: 16 days).
Test [4] is described as follows: Anticancer activity against mouse BA/F3 cells expressing JAK2 V617F mutation allografted in Harlan SCID mouse assessed as increase in lifespan at 60 mg/kg, po by luciferase reporter gene assay relative to control. For orientation: In a reporter assay the amount or activity of a reporter protein is the signal.

As to `Cn1c(=O)n(-c2ccc(C(C)(C)C#N)cc2)c2c3cc(-c4cnc5ccccc5c4)ccc3ncc21` [DACTOLISIB], the Activity in test [1] is 42%. Further, the MSD in test [2] was 24 days.
For the molecule `N#CC[C@H](C1CCCC1)n1cc(-c2ncnc3[nH]ccc23)cn1` [RUXOLITINIB], the MSD in test [3] came to 19 days. Further, in test [4], the Activity was 19%.

(Values after ChEMBL document CHEMBL2384975, “Combination Therapy: JAK PI3K/mTOR. A Novel Approach for Cancer Treatment” (2013).)
